Reference: patent publication US8546343B2, “Aminoglycoside antibiotics targeting bacterial 16S ribosomal RNA” (Eidgenoessische Technische Hochschule Zurich, priority 2007, dated 2013)
In brackets after ≈: the same amount, converted by molar mass.

Assays:
[1] = tested on: M. smegmatis ΔrrnB (bacterial ribosomes); experiment: MIC, recombinant M. smegmatis with bacterial (wild-type) ribosomes; type: cell-based, Mycobacterium smegmatis; conditions: 72 h at 37° C.
Excerpt: (§1) The strain used for introduction/selection of mutational alterations was a genetically modified derivative of Mycobacterium smegmatis carrying a single functional chromosomal rRNA operon (Sander et al. Mol. Microbiol. 1996, 22: 841-848). This strain, termed M. smegmatis rrn^−, allowed for the selection of mutational rRNA gene alterations using a plasmid carrying the rRNA gene with the respective mutational alteration.)
(§2) The rRNA gene carried on the plasmid encodes either the complete rRNA operon (Prammananan et al. Antimicrob. Agents Chemother. 1999, 43: 447-453) or a non-functional rRNA gene fragment of approximately 1.0 kb (Pfister et al. Antimicrob. Agents Chemother. 2003, 47: 1496-1502). PCR-mutagenesis in vitro was used to generate the mutagenized rRNA gene fragment. In the case of a partial rRNA gene fragment the mutagenized rRNA gene fragment was cloned into vectors pMV261 or pMV361 (Sander et al. Mol. Microbiol. 2002, 46: 1295-1304; Pfister et al. Antimicrob. Agents Chemother. 2003, 47: 1496-1502) to result in vectors carrying a partial rRNA gene fragment of approximately 1.0 kb with the mutational alteration introduced. In the case of plasmids carrying the complete rRNA operon the mutagenized rRNA gene fragment obtained by PCR was cloned into vectors pMV361 rRNA or pMV261 rRNA using appropriate restriction sites (Prammananan et al. Antimicrob. Agents Chemother. 1999, 43: 447-453). Vectors pMV361 rRNA and pMV261 rRNA carried a complete copy of the rRNA operon from M. smegmatis (Sander et al. Mol. Microbiol. 1997, 26: 469-480). Introduction of mutations into the plasmid encoded rRNA was confirmed by sequencing.
(§3) The single rRNA allelic derivative of M. smegmatis, i.e. M. smegmatis rrn, was used for transformation of the plasmids. The strain was made electro-competent and transformed according to standard techniques and as described previously (Sander et al. Mol. Microbiol. 1997, 26: 469-484). Following primary selection, the plasmid-encoded mutational rRNA gene alteration was transferred into the single chromosomal rRNA operon by means of RecA-mediated homologous recombination (Prammananan at al. Antimicrob. Agents Chemother. 1999, 43: 447-453). Introduction of the mutational rRNA gene alteration into the single functional chromosomal rRNA operon by gene conversion was confirmed by sequence determination.
(§4) Ribosomal drug susceptibility was studied by determining the minimal inhibitory concentrations, as described in detail in Pfister et al. 2003 and 2005 (see above).
(§5) The recombinants carrying the respective mutational alterations in the functional rRNA operon were colony-purified and subjected to determinations of minimal inhibitory concentrations (MIC) to determine ribosomal drug susceptibility. Cultures from single colonies were grown in LB medium supplemented with 0.05% Tween 80 and used for MIC tests in a microtiter plate format. Starting cultures contained 200 μl of bacterial cells at an optical density of 0.025 at 600 nm, and the respective drug was added in twofold series of dilution.
(§6) Key nucleotides which distinguish the prokaryotic from the eukaryotic decoding site are 16S rRNA positions 1408 (bacterial ribosome: A, eukaryotic cytosolic ribosomes: G) and 1491 (bacterial ribosomes: G, eukaryotic cytosolic ribosomes: A, eukaryotic mitochondrial ribosome: C).

[2] = tested on: M. smegmatis ΔrrnB 1408G (16S rRNA position 1408 G, eukaryotic cytosolic ribosomes); experiment: MIC, recombinant M. smegmatis with mutant ribosomes 1408G; type: cell-based, Mycobacterium smegmatis; conditions: M. smegmatis ΔrrnB 1408G mutant ribosomes; 72 h at 37° C.
Excerpt: as §1, §2, §3, §4, §5, §6

[3] = tested on: M. smegmatis ΔrrnB 1491A (16S rRNA position 1491 A, eukaryotic cytosolic ribosomes); experiment: MIC, recombinant M. smegmatis with mutant ribosomes 1491A; type: cell-based, Mycobacterium smegmatis; conditions: M. smegmatis ΔrrnB 1491A mutant ribosomes; 72 h at 37° C.
Excerpt: as §1, §2, §3, §4, §5, §6

[4] = tested on: M. smegmatis ΔrrnB 1491C (16S rRNA position 1491 C, eukaryotic mitochondrial ribosome); experiment: MIC, recombinant M. smegmatis with mutant ribosomes 1491C; type: cell-based, Mycobacterium smegmatis; conditions: M. smegmatis ΔrrnB 1491C mutant ribosomes; 72 h at 37° C.
Excerpt: as §1, §2, §3, §4, §5, §6

[5] = tested on: AG011 Staph. aureus clinical isolate; experiment: Standard MIC assay, AG011; type: cell-based, Staphylococcus aureus; conditions: for MIC: Staphylococcus aureus, read-out: Minimal inhibitory concentrations AG011
Experimental: (§7) Selected compounds of the present invention were tested for antibiotic susceptibility using clinical isolates of Staphylococci, Enterococci and Escherichia coli as well as strains carrying defined resistance determinants and compared to well known antibiotics of the state of the art. Drug susceptibility was determined in standard MIC assays, i.e. by determination of the minimal drug concentration required to inhibit bacterial growth in vitro.

[6] = tested on: AG013 Staph. epi. clinical isolate; experiment: Standard MIC assay, AG013; type: cell-based, Staphylococcus epidermidis; conditions: for MIC: Staphylococcus epidermidis, read-out: Minimal inhibitory concentrations AG013
Experimental: as §7

[7] = tested on: AG014 Staph. epi. clinical isolate; experiment: Standard MIC assay, AG014; type: cell-based, Staphylococcus epidermidis; conditions: for MIC: Staphylococcus epidermidis, read-out: Minimal inhibitory concentrations AG014
Experimental: as §7

AG016 S. aureus BM3002 = experiment: Standard MIC assay, AG016; type: cell-based, Staphylococcus aureus; conditions: for MIC: Staphylococcus aureus, read-out: Minimal inhibitory concentrations AG016
Experimental: as §7

[8] = tested on: AG015 S. aureus BM3002 (ANT4′); experiment: Standard MIC assay, AG015; type: cell-based, Staphylococcus aureus; conditions: for Minimal inhibitory concentrations AG015: S. aureus BM3002 (ANT4′); for MIC: Staphylococcus aureus, read-out: Minimal inhibitory concentrations AG015
Experimental: as §7

AG017 E. faecalis JH2-2 = experiment: Standard MIC assay, AG017; type: cell-based, Enterococcus faecalis; conditions: for MIC: Enterococcus faecalis, read-out: Minimal inhibitory concentrations AG017
Experimental: as §7

[9] = tested on: AG019 E. faecalis JH2-2 (APH2″ AAC6′); experiment: Standard MIC assay, AG019; type: cell-based, Enterococcus faecalis; conditions: for Minimal inhibitory concentrations AG019: E. faecalis JH2-2 (APH2″ AAC6′); for MIC: Enterococcus faecalis, read-out: Minimal inhibitory concentrations AG019
Experimental: as §7

[10] = tested on: AG001 E. coli clinical isolate; experiment: Standard MIC assay, AG001; type: cell-based, Escherichia coli
Experimental: as §7

[11] = tested on: AG004 E. coli clinical isolate; experiment: Standard MIC assay, AG004; type: cell-based, Escherichia coli
Experimental: as §7

AG006 E. coli BM13 = experiment: Standard MIC assay, AG006; type: cell-based, Escherichia coli
Experimental: as §7

[12] = tested on: AG007 E. coli BM13 (AAC3); experiment: Standard MIC assay, AG007; type: cell-based, Escherichia coli; conditions: for Minimal inhibitory concentrations AG007: E. coli BM13 (AAC3)
Experimental: as §7

[13] = tested on: AG008 E. coli BM13 (ANT2″); experiment: Standard MIC assay, AG008; type: cell-based, Escherichia coli; conditions: E. coli BM13 (ANT2″)
Experimental: as §7

[14] = tested on: AG009 E. coli BM13 AAC(6′)-1B; experiment: Standard MIC assay, AG009; type: cell-based, Escherichia coli; conditions: for Minimal inhibitory concentrations AG009: E. coli BM13 AAC(6′)-1B
Experimental: as §7

[15] = tested on: AG002 E. coli clinical isolate; experiment: Standard MIC assay, AG002; type: cell-based, Escherichia coli; conditions: Escherichia coli, read-out: Minimal inhibitory concentrations AG002
Experimental: as §7

[16] = tested on: AG003 E. coli clinical isolate; experiment: Standard MIC assay, AG003; type: cell-based, Escherichia coli; conditions: Escherichia coli, read-out: Minimal inhibitory concentrations AG003
Experimental: as §7

Compound | minimal inhibitory concentrations ΔrrnB [1] [µg/mL] | minimal inhibitory concentrations ΔrrnB 1408G [2] [µg/mL] | minimal inhibitory concentrations ΔrrnB 1491A [3] [µg/mL] | minimal inhibitory concentrations ΔrrnB 1491C [4] | Minimal inhibitory concentrations AG011 [5] [mg/L] | Minimal inhibitory concentrations AG013 [6] [mg/L] | Minimal inhibitory concentrations AG014 [7] [mg/L] | Minimal inhibitory concentrations AG016 (AG016 S. aureus BM3002) [mg/L] | Minimal inhibitory concentrations AG015 [8] [mg/L] | Minimal inhibitory concentrations AG017 (AG017 E. faecalis JH2-2) [mg/L] | Minimal inhibitory concentrations AG019 [9] [mg/L] | Minimal inhibitory concentrations AG001 [10] [mg/L] | Minimal inhibitory concentrations AG004 [11] [mg/L] | Minimal inhibitory concentrations AG006 (AG006 E. coli BM13) [mg/L] | Minimal inhibitory concentrations AG007 [12] [mg/L] | Minimal inhibitory concentrations AG008 [13] [mg/L] | Minimal inhibitory concentrations AG009 [14] [mg/L] | MIC [5] [µg/mL] | MIC [6] [µg/mL] | MIC [7] [µg/mL] | other results
NC[C@@H]1O[C@H](O[C@H]2[C@@H](O)[C@H](O[C@@H]3[C@@H](O)[C@H](N)C[C@H](N)[C@H]3O[C@H]3O[C@@H]4CO[C@@H](c5ccc(Cl)cc5)O[C@H]4[C@H](O)[C@H]3N)O[C@@H]2CO)[C@H](N)[C@@H](O)[C@@H]1O [Compound 5.8, 4′,6′-O-p-Chlorobenzylideneparomomycin] | 4 | >512 | >512 | >512 µg/mL | 4 to 8 | 8 (≈ 10.8 µM) | 8 to 16 | 8 (≈ 10.8 µM) | 16 (≈ 21.7 µM) | 16 to 32 | 64 (≈ 86.7 µM) | 32 (≈ 43.3 µM) | 16 to 32 | 64 (≈ 86.7 µM) | 64 (≈ 86.7 µM) | 64 (≈ 86.7 µM) | 64 (≈ 86.7 µM) |  |  |  | 
NC[C@@H]1O[C@H](O[C@H]2[C@@H](O)[C@H](O[C@@H]3[C@@H](O)[C@H](N)C[C@H](N)[C@H]3O[C@H]3O[C@@H]4CO[C@@H](c5ccc6ccccc6c5)O[C@H]4[C@H](O)[C@H]3N)O[C@@H]2CO)[C@H](N)[C@@H](O)[C@@H]1O [Compound 5.20, 4′,6′-O-2-Naphthylideneparomomycin] | 2 to 4 | >512 | 512 | 512 µg/mL | 1 to 2 | 1 (≈ 1.33 µM) | 1 (≈ 1.33 µM) | 4 (≈ 5.31 µM) | 8 to 16 | 8 to 16 | 8 to 16 | 8 (≈ 10.6 µM) | 8 (≈ 10.6 µM) | 8 to 16 | 16 to 32 | 16 (≈ 21.2 µM) | 16 to 32 |  |  |  | 
NC[C@@H]1O[C@H](O[C@H]2[C@@H](O)[C@H](O[C@@H]3[C@@H](O)[C@H](N)C[C@H](N)[C@H]3O[C@H]3O[C@H](CO)[C@@H](O)[C@H](O)[C@H]3N)O[C@@H]2CO)[C@H](N)[C@@H](O)[C@@H]1O [Paromomycin, paromomycin, reference compound] | 1 | 64 | 64 | ≧512 μg/ml |  |  |  |  |  |  |  |  |  |  |  |  |  | 8 (≈ 13 µM) | ≥ 256 | ≥ 256 | MIC (AG016 S. aureus BM3002): 2 to 4 µg/mL (≈ 3.25 to 6.5 µM); MIC [8]: > 256 µg/mL; MIC (AG017 E. faecalis JH2-2): 128 to 256 µg/mL (≈ 208 to 416 µM); MIC [9]: > 256 µg/mL
NC[C@H]1O[C@H](O[C@H]2[C@H](O)[C@@H](O[C@H]3O[C@H](CO)[C@@H](O)[C@H](N)[C@H]3O)[C@H](N)C[C@@H]2N)[C@H](N)C[C@@H]1O [Tobramycin, reference compound] |  |  |  |  |  |  |  |  |  |  |  |  |  |  |  |  |  | 8 (≈ 17.1 µM) | ≥ 256 | 256 (≈ 548 µM) | MIC (AG016 S. aureus BM3002): 0.5 to 1 µg/mL (≈ 1.07 to 2.14 µM); MIC [8]: ≥ 256 µg/mL; MIC (AG017 E. faecalis JH2-2): 16 to 32 µg/mL (≈ 34.2 to 68.4 µM); MIC [9]: > 256 µg/mL; MIC ([10]; Escherichia coli, read-out: Minimal inhibitory concentrations AG001): 4 µg/mL (≈ 8.56 µM); MIC [15]: 4 µg/mL (≈ 8.56 µM); MIC [16]: 32 µg/mL (≈ 68.4 µM); MIC ([11]; Escherichia coli, read-out: Minimal inhibitory concentrations AG004): 64 µg/mL (≈ 137 µM); MIC (AG006 E. coli BM13; Escherichia coli, read-out: Minimal inhibitory concentrations AG006): 2 µg/mL (≈ 4.28 µM); MIC ([12]; Escherichia coli, read-out: Minimal inhibitory concentrations AG007): 8 µg/mL (≈ 17.1 µM); MIC ([14]; Escherichia coli, read-out: Minimal inhibitory concentrations AG009): 128 to 256 µg/mL (≈ 274 to 548 µM)
